Assay results published in patent US20110268721A1, “Therapy Regimens, Dosing Regimens And Stable Medicaments For The Treatment Of Pompe Disease” (Amicus Therapeutics, Inc., priority 2008, published 2011).
Counter-ions that a name gives are not always drawn.

Experiments:
[1] = tested on: GAA KO mouse; test: GAA activity in heart and diaphragm tissue of GAA KO mouse, rhGAA with or without 1-DNJ-HCl; assay type: in vivo
Description: Three groups of GAA KO Mice were administered one of the following formulations: […]
(1) Control (No Treatment);
Heart and Diaphragm tissue homogenates were harvested and rhGAA activity was measured using the fluorogenic substrate (4-MUG).

[2] = tested on: GAA KO mice; test: Myozyme tissue uptake (GAA activity, 4-MUG) in GAA KO mice with or without oral 1-DNJ-HCl; assay type: in vivo
Source text: Enzymatic activity as determined using a 4-MUG fluorogenic substrate assay.

[3] = target: T1, recombinant human GAA (Myozyme®, Genzyme Corp.) (Homo sapiens, UniProt P10253); test: SYPRO Orange thermal stability assay (heat-induced denaturation); assay type: binding
T1 construct: purchased Genzyme Corp
Source text: The thermal stability assay utilizes heat to induce protein denaturation, which is monitored using a SYPRO Orange dye that fluoresces upon binding to hydrophobic amino acids (which are not exposed in a folded protein).
FIG. 5 depict the results of a thermal stability assay that utilizes heat to induce protein denaturation, which is monitored using a SYPRO Orange dye that fluoresces upon binding to hydrophobic amino acids (which are not exposed in a folded protein).
Denaturation is monitored using a SYPRO Orange dye that fluoresces upon binding to hydrophobic amino acids (which are not exposed in a folded protein).
The thermal stability was performed at pH 7.4 for two formulations, which corresponds to the pH of the ER.
A thermal stability experiment as generally described in Example 1 was performed on four compositions:
(1) Myozyme only composition;

[4] = target: T1, recombinant human GAA (Myozyme®, Genzyme Corp.); test: SYPRO Orange protein folding monitored at 37° C. over 24 hours; assay type: binding; details: plasma pH (7.4), 100 μM 1-DNJ-HCl
Description: FIG. 2B depicts a parallel SYPRO Orange thermal stability experiment to determine if the loss of enzyme activity shown in FIG. 2A, particularly the loss of Myozyme activity at ER pH (7.4), correlates with protein unfolding and denaturation.
In order to determine if loss of initial enzyme activity is correlated to failure to maintain a proper conformation, a SYPRO Orange thermal stability experiment was performed on the samples above as generally described in Example 1. […] Based on this experiment, the % of GAA folded was estimated and plotted in FIG. 2B.

[5] = target: T2, rhGAA (Myozyme™) (Homo sapiens, UniProt P10253); test: rhGAA enzyme inactivation in citrate anti-coagulated whole blood at 37° C. (4-MUG); assay type: biochemical
T2 construct: purchased Genzyme Corp; host or cells: Chinese hamster ovary cell line
Description: Aliquots were collected at 0, 2, 4, 8 and 24 hrs and centrifuged to obtain plasma. These plasma samples were then diluted in potassium acetate buffer (pH 4.0) and assayed for GAA activity using the 4-methylumbeliferyl-α-glucose (4-MUG) fluorogenic substrate. The measured GAA activity for individual samples at each time point was normalized to the 0 hr and expressed as % of initial activity. Data from 4 independent experiments were analyzed to obtain the mean (and standard deviation) and plotted versus time to assess the loss of enzyme activity over this time course.
Aliquots were collected at 0, 3 and 6 hrs and centrifuged to obtain plasma. These plasma samples were then diluted in potassium acetate buffer (pH 4.0) and assayed for GAA activity using the 4-methylumbeliferyl-α-glucose (4-MUG) fluorogenic substrate. The measured GAA activity for individual samples at each time point was normalized to the 0 hr and expressed as % of initial activity.
Based on human plasma PK data, these concentrations are readily obtainable in the clinic.

[6] = target: T3, GAA in cell lines derived from late-onset Pompe patients with the IVS 1 (−13 T>G) splicing defect (Homo sapiens, UniProt P10253); test: GAA levels in cell lines derived from late-onset Pompe patients; assay type: cell-based; details: IVS 1 (−13 T>G) splicing mutation
T3 construct: endogenous in cells

[7] = stored at 2 to 8° C.; patient instructions for Myozyme; cited from earlier work
[8] = tested on: GAA KO mice; test: Tissue glycogen reduction in GAA KO mice; assay type: in vivo; details: Myozyme 40 mg/kg IV every other week for 8 weeks, 1-DNJ-HCl 30 mg/kg oral 30 minutes prior where co-administered
Description: Glycogen reduction with Myozyme™ alone was 93±1%, 41±4%, 69±3%, and 18±4%, in heart, diaphragm, soleus, and quadriceps, respectively, relative to untreated mice.
Twelve-week old male GAA KO mice were administered a single dose of Myozyme™ (40 mg/kg) via bolus tail vein injection every other week for 8 weeks. To prevent anaphylaxis, before the third and fourth Myozyme™ injection, diphenhydramine (10 mg/kg intraperitoneally) was administered 10 min before Myozyme™ injection. […] Mice were euthanized 14 days after the last Myozyme™ administration.
Glycogen levels in heart, diaphragm, soleus, and quadriceps were then measured. […] Briefly, homogenates were prepared by homogenizing ˜50 mg tissue for 3-5 seconds on ice with a microhomogenizer in 200 μL deionized water. Supernatants were heat denatured (99° C. for 10 min) to remove endogenous amyloglucosidase activity. Denatured lysates (4 μL) were then analyzed in duplicate by addition of 36 μL water with and without 10 μL of 800 U/mL of amyloglucosidase (Sigma Aldrich, St. Louis, Mo.) and incubated for 1 hour at 50° C. The reaction was stopped by inactivation at 100° C. for 10 min. Finally, 200 μL of glucose reagent (Sigma) was added absorbance read at 340 nm on Spectramax. A standard curve ranging from 5 μg/mL to 400 μg/mL Type III rabbit liver glycogen (Sigma) was run each day for conversion of absorbance to absolute glycogen units. Simultaneously, the amount of protein was determined in tissue homogenates using the Micro BCA Protein Assay (Pierce, Rockford, Ill.) following the manufacturer's instructions. The glycogen content of each sample was normalized to protein, and data were finally expressed as micrograms of glycogen per milligram of protein (μg/mg protein).

[9] = reported value; cited from earlier work

rhGAA activity in whole blood with 1-DNJ-HCl ([5]; 50 μM 1-DNJ-HCl, 37° C., throughout 24 hrs) | Molecule | increase of uptake of rhGAA in heart and diaphragm ([1]; GAA KO mice, 100 mg/kg p.o., regimen including administration prior to rhGAA injection) | rhGAA uptake in the heart and diaphragm (GAA activity) ([1]; GAA KO mouse, co-administered with rhGAA versus ERT monotherapy) | effect of co-administration on Myozyme tissue uptake ([2]; 10, 100, 1000 mg/kg oral 1-DNJ-HCl with Myozyme 10 mg/kg IV, up to 7 days post injection) | thermal stability of rhGAA (heat required to denature) ([3]; pH 7.4, 100 μM 1-DNJ-HCl, compared to formulation without the ASSC) | prevention of GAA denaturation and loss of enzyme activity [4] | stabilization of rhGAA in whole blood ([5]; high 1-DNJ-HCl concentrations (50 and 100 μM), range tested 0-100 μM) | GAA levels in patient-derived cell lines [6] | time the product is stable on storage [7] | Myozyme tissue uptake (as a measure of GAA activity) ([2]; Myozyme 10 mg/kg IV once per week, 7 days post injection, all groups) | thermal stability of Myozyme alone ([3]; lysosomal pH (5.2) versus ER pH (7.4), no ASSC) | glycogen reduction in diaphragm relative to untreated mice [8] | glycogen reduction in heart relative to untreated mice [8] | glycogen reduction in quadriceps relative to untreated mice [8] | glycogen reduction in soleus relative to untreated mice [8] | plasma half-life of Myozyme (reported) [9]
remained completely active | OC[C@H]1NC[C@H](O)[C@@H](O)[C@@H]1O [1-DNJ-HCl, 1-deoxynorjirimycin hydrochloride] | approximately 2 fold | increased | dose-dependent increase | required significantly more heat to denature | can prevent GAA denaturation and loss of enzyme activity | best for stabilizing rhGAA and preventing enzyme inactivation | increased GAA levels alone and in combination with hrGAA |  |  |  |  |  |  |  | 
 | Myozyme: alglucosidase alfa, human acid α-glucosidase produced by recombinant DNA technology in a Chinese hamster ovary cell line (Genzyme) |  |  |  |  |  |  |  | up to 24 hours | declined | much more stable at lysosomal pH (5.2) than at ER pH (7.4) | 41±4% | 93±1% | 18±4% | 69±3% | more than 3 hrs
